Results reported in article PMC9299836 (eLife, 2022).
Where “and” joins values, the source holds several entries; their conditions need not be identical. Equal values may be shown once. Read-outs that look alike come from different tables or passages of the source.

Tests used:
mGluR2 [1] = target: mGluR2 (Mus musculus, UniProt Q14BI2, INS715F); experiment: Live-cell FRET, azi-ECL2 (7TM domain, extracellular loop 2) sensor in HEK293T cells;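 also: Cy3/Cy5 click-labeled sensor, whole-membrane ROIs per cell, apparent FRET after bleed-through correction, ΔFRET as treatment minus pre-treatment signal, at room temperature, at least three biological replicates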
mGluR2 (Mus musculus, UniProt Q14BI2, INS715F), sequence (Q14BI2 with tags, fused parts or gaps INS715F): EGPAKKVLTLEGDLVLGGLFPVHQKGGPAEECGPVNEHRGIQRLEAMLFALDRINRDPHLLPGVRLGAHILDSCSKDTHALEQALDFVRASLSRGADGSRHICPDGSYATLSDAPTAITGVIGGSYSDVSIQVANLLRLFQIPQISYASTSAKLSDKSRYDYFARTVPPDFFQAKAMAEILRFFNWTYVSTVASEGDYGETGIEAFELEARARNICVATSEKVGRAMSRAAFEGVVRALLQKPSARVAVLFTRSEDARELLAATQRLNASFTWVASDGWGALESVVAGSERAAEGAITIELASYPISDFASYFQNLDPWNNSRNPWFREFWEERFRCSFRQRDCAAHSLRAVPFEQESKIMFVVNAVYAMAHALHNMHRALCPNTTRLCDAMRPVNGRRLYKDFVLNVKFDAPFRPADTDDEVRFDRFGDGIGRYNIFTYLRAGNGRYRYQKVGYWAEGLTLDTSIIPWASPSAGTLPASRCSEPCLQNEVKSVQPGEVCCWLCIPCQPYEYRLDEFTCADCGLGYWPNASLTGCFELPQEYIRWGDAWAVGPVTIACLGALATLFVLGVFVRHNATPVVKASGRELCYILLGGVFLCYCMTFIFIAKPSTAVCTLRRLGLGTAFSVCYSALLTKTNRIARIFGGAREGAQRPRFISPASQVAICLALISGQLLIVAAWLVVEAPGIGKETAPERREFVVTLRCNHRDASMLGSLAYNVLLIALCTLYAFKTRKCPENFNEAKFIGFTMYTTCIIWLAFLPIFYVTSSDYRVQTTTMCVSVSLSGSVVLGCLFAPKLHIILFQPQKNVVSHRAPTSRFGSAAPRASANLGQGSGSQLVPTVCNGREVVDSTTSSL

mGluR2 [2] = target: T1, mGluR2 (Mus musculus, UniProt Q14BI2); experiment: Functional calcium imaging, SNAP-mGluR2 (no FLAG-tag) with chimeric G protein Gqo5 in HEK293T cells; assay type: cell-based; set-up: Full length mGluR2 construct with an amber codon (TAG) mutation of amino acid A548 (azi-CRD) or N-terminal SNAP-tag (SNAP-mGluR2); host or cells: HEK293T; details: for Intracellular Ca2+ response, Mean / Intracellular Ca2+ response: normalized to 1mM glutamate; for Intracellular Ca2+ response: single experiments
T1 sequence (Q14BI2 19-872): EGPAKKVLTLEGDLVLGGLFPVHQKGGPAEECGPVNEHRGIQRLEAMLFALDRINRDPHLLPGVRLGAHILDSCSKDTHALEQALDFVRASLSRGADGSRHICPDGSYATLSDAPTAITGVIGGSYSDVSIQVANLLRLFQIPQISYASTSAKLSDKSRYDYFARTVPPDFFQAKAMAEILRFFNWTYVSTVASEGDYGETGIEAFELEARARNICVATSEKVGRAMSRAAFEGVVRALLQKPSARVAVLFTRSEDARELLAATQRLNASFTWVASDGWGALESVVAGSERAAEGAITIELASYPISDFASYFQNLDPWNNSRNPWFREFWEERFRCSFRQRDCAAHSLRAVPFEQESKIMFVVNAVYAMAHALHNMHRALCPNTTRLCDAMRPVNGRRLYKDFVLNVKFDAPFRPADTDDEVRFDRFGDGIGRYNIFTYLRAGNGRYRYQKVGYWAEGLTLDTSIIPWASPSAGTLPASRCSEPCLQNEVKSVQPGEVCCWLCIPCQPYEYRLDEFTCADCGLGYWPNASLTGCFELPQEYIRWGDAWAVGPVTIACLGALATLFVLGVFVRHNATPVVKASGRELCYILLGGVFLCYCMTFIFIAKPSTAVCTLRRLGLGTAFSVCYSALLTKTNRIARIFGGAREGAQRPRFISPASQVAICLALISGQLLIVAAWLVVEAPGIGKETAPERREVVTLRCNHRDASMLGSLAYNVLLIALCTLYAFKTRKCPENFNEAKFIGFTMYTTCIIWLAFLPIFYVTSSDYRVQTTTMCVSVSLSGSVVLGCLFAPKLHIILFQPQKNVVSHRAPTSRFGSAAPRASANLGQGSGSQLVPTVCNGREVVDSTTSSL

mGluR2 [3] = target: T1, mGluR2; experiment: Live-cell FRET, SNAP-m2 (VFT domain) inter-subunit sensor in HEK293T cells; details: for Normalized FRET response, Mean (SNAP-m2 agonist DRC): maximal responses normalized to 1mM glutamate;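 as to all read-outs here: apparent FRET efficiency from whole-membrane ROIs of single cells, corrected for donor bleed-through and background, ΔFRET as treatment minus pretreatment signal, recorded at room temperature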
mGluR2 [4] = target: mGluR2 (Mus musculus, UniProt Q14BI2, A548F); experiment: Live-cell FRET, azi-CRD (cysteine-rich domain) sensor in HEK293T cells; details: for Normalized FRET response, Mean (azi-CRD agonist DRC): maximal responses normalized to 1mM glutamate
mGluR2 (Mus musculus, UniProt Q14BI2, A548F), sequence (Q14BI2 19-872 A548F): as the sequence (Q14BI2 19-872) above, with A530F counted along it

efficacy relative to glutamate efficacy (mGluR2 [1]; ECL2 sensor): 64%
Mean max response (normalized max ΔFRET) (mGluR2 [1]; azi-ECL2, agonist alone (1 mM glutamate, 100 μM DCG-IV, 20 μM LY379268, 100 μM APDC), normalized to 1 mM glutamate): 0.64
Normalized ΔFRET response, Mean (agonist DRC) (mGluR2 [1]; azi-ECL2, log[agonist] (M) -4, normalized to 1 mM glutamate): 0.6388
Normalized ΔFRET response, Mean (agonist DRC) (mGluR2 [1]; azi-ECL2, log[agonist] (M) -4.52288, normalized to 1 mM glutamate): 0.6117
Normalized ΔFRET response, Mean (agonist DRC) (mGluR2 [1]; azi-ECL2, log[agonist] (M) -5, normalized to 1 mM glutamate): 0.5883
Normalized ΔFRET response, Mean (agonist DRC) (mGluR2 [1]; azi-ECL2, log[agonist] (M) -5.39794, normalized to 1 mM glutamate): 0.5288
Normalized ΔFRET response, Mean (agonist DRC) (mGluR2 [1]; azi-ECL2, log[agonist] (M) -5.82391, normalized to 1 mM glutamate): 0.4325
Normalized ΔFRET response, Mean (agonist DRC) (mGluR2 [1]; azi-ECL2, log[agonist] (M) -6.09691, normalized to 1 mM glutamate): 0.3472
Normalized ΔFRET response, Mean (agonist DRC) (mGluR2 [1]; azi-ECL2, log[agonist] (M) -6.52288, normalized to 1 mM glutamate): 0.1978
Normalized ΔFRET response, Mean (agonist DRC) (mGluR2 [1]; azi-ECL2, log[agonist] (M) -7, normalized to 1 mM glutamate): 0.04555
Normalized ΔFRET response, Mean (agonist DRC) (mGluR2 [1]; azi-ECL2, log[agonist] (M) -7.30103, normalized to 1 mM glutamate): 0.01237
Normalized ΔFRET response, Mean (agonist DRC) (mGluR2 [1]; azi-ECL2, log[agonist] (M) -7.69897, normalized to 1 mM glutamate): 0
Normalized Max ΔFRET, Mean (mGluR2 [1]; azi-ECL2, 100μM agonist, mean of cells, normalized to 1mM glutamate): 63.8832
Hill slope (mGluR2 [1]; azi-ECL2 sensor, orthosteric agonist alone): 1.05
EC50 (mGluR2 [1]; read-out: EC50, live-cell FRET titration, azi-ECL2 sensor, DCG-IV, individual cell values (N=24)): 407 nM and 1580 nM and 2080 nM and 2050 nM and 1660 nM and 1520 nM and 1840 nM and 2020 nM and 1160 nM and 2070 nM and 563 nM and 325 nM and 399 nM and 405 nM and 280 nM and 445 nM and 366 nM and 629 nM and 300 nM and 459 nM and 417 nM and 327 nM and 390 nM and 398 nM
EC50 (mGluR2 [1]; read-out: Mean half-maximum effective concentration (EC50), azi-ECL2 sensor, orthosteric agonist alone): 900 nM
Normalized Max Intracellular Ca2+ Response, individual experiments (mGluR2 [2]; 100 μM DCG-IV, 10 μM LY379268, 300 μM APDC, normalized to 1 mM glutamate, single replicate): 0.684 and 0.6918 and 0.7087
Normalized Max Intracellular Ca2+ Response, mean (mGluR2 [2]; 1 mM Glu, 100 μM DCG-IV, 10 μM LY379268, 300 μM APDC, normalized to 1 mM glutamate): 0.6948
efficacy relative to glutamate efficacy (mGluR2 [2]; functional calcium imaging assay): 69%
Intracellular Ca2+ response, Mean (mGluR2 [2]; log[agonist] (M) -4): 0.6948
Intracellular Ca2+ response (mGluR2 [2]; log[agonist] (M) -4): 0.6948
Intracellular Ca2+ response, Mean (mGluR2 [2]; log[agonist] (M) -4.52288): 0.7042
Intracellular Ca2+ response (mGluR2 [2]; log[agonist] (M) -4.52288): 0.7332 and 0.6724 and 0.7069
Intracellular Ca2+ response, Mean (mGluR2 [2]; log[agonist] (M) -5): 0.632
Intracellular Ca2+ response (mGluR2 [2]; log[agonist] (M) -5): 0.631 and 0.6318 and 0.6332
Intracellular Ca2+ response, Mean (mGluR2 [2]; log[agonist] (M) -5.39794): 0.5754
Intracellular Ca2+ response (mGluR2 [2]; log[agonist] (M) -5.39794): 0.5417 and 0.5882 and 0.5962
Intracellular Ca2+ response, Mean (mGluR2 [2]; log[agonist] (M) -5.82391): 0.3655
Intracellular Ca2+ response (mGluR2 [2]; log[agonist] (M) -5.82391): 0.2777 and 0.362 and 0.4567
Intracellular Ca2+ response, Mean (mGluR2 [2]; log[agonist] (M) -6): 0.3093
Intracellular Ca2+ response (mGluR2 [2]; log[agonist] (M) -6): 0.2196 and 0.3072 and 0.4011
Intracellular Ca2+ response, Mean (mGluR2 [2]; log[agonist] (M) -6.52288): 0.06286
Intracellular Ca2+ response, Mean (mGluR2 [2]; log[agonist] (M) -7): 0
Intracellular Ca2+ response (mGluR2 [2]; log[agonist] (M) -7): 0
Intracellular Ca2+ response, Mean (mGluR2 [2]; log[agonist] (M) -8): 0
Intracellular Ca2+ response (mGluR2 [2]; log[agonist] (M) -8): 0
Mean max response (normalized max ΔFRET) (mGluR2 [3]; SNAP-m2 (VFT), agonist alone (1 mM glutamate, 100 μM DCG-IV, 20 μM LY379268, 100 μM APDC), normalized to 1 mM glutamate): 0.79
Normalized Max ΔFRET, Mean (mGluR2 [3]; SNAP-m2, 100μM agonist, mean of cells, normalized to 1mM glutamate): 78.7384
Hill slope (mGluR2 [3]; SNAP-m2 sensor, orthosteric agonist alone): –1.26
efficacy relative to glutamate efficacy (mGluR2 [3]; VFT domain FRET sensor): 79%
Normalized FRET response, Mean (SNAP-m2 agonist DRC) (mGluR2 [3]; log[ligand] (M) -4): -0.7874
Normalized FRET response, Mean (SNAP-m2 agonist DRC) (mGluR2 [3]; log[ligand] (M) -4.52288): -0.8342
Normalized FRET response, Mean (SNAP-m2 agonist DRC) (mGluR2 [3]; log[ligand] (M) -5): -0.8388
Normalized FRET response, Mean (SNAP-m2 agonist DRC) (mGluR2 [3]; log[ligand] (M) -5.39794): -0.8023
Normalized FRET response, Mean (SNAP-m2 agonist DRC) (mGluR2 [3]; log[ligand] (M) -5.82391): -0.7016
Normalized FRET response, Mean (SNAP-m2 agonist DRC) (mGluR2 [3]; log[ligand] (M) -6.09691): -0.5309
Normalized FRET response, Mean (SNAP-m2 agonist DRC) (mGluR2 [3]; log[ligand] (M) -6.52288): -0.3457
Normalized FRET response, Mean (SNAP-m2 agonist DRC) (mGluR2 [3]; log[ligand] (M) -7): -0.1181
Normalized FRET response, Mean (SNAP-m2 agonist DRC) (mGluR2 [3]; log[ligand] (M) -7.30103): -0.04846
Normalized FRET response, Mean (SNAP-m2 agonist DRC) (mGluR2 [3]; log[ligand] (M) -7.69897): 0
EC50 (mGluR2 [3]; read-out: Live-cell FRET titration EC50, SNAP-m2, agonist alone, individual experiments): 601 nM and 624 nM and 283 nM and 314 nM and 294 nM and 323 nM
EC50 (mGluR2 [3]; read-out: Mean half-maximum effective concentration (EC50), SNAP-m2 sensor, orthosteric agonist alone): 400 nM
efficacy relative to glutamate efficacy (mGluR2 [4]; CRD sensor): 69%
Hill slope (mGluR2 [4]; azi-CRD sensor, orthosteric agonist alone): 0.94
Mean max response (normalized max ΔFRET) (mGluR2 [4]; azi-CRD, agonist alone (1 mM glutamate, 100 μM DCG-IV, 20 μM LY379268, 100 μM APDC), normalized to 1 mM glutamate): 0.69
Normalized Max ΔFRET, Mean (mGluR2 [4]; azi-CRD, 100μM agonist, mean of cells, normalized to 1mM glutamate): 69.3017
Normalized FRET response, Mean (azi-CRD agonist DRC) (mGluR2 [4]; log[ligand] (M) -4): 0.693
Normalized FRET response, Mean (azi-CRD agonist DRC) (mGluR2 [4]; log[ligand] (M) -4.1549): 0.638
Normalized FRET response, Mean (azi-CRD agonist DRC) (mGluR2 [4]; log[ligand] (M) -4.52288): 0.594
Normalized FRET response, Mean (azi-CRD agonist DRC) (mGluR2 [4]; log[ligand] (M) -5): 0.6438
Normalized FRET response, Mean (azi-CRD agonist DRC) (mGluR2 [4]; log[ligand] (M) -5.39794): 0.5492
Normalized FRET response, Mean (azi-CRD agonist DRC) (mGluR2 [4]; log[ligand] (M) -5.82391): 0.4312
Normalized FRET response, Mean (azi-CRD agonist DRC) (mGluR2 [4]; log[ligand] (M) -6): 0.3274
Normalized FRET response, Mean (azi-CRD agonist DRC) (mGluR2 [4]; log[ligand] (M) -6.52288): 0.164
Normalized FRET response, Mean (azi-CRD agonist DRC) (mGluR2 [4]; log[ligand] (M) -7): 0.06087
Normalized FRET response, Mean (azi-CRD agonist DRC) (mGluR2 [4]; log[ligand] (M) -8): 0
EC50 (mGluR2 [4]; read-out: Live-cell FRET titration EC50, azi-CRD, agonist alone, individual experiments): 1530 nM and 1470 nM and 783 nM and 580 nM and 528 nM and 523 nM and 890 nM and 1360 nM and 1600 nM and 2080 nM
EC50 (mGluR2 [4]; read-out: Mean half-maximum effective concentration (EC50), azi-CRD sensor, orthosteric agonist alone): 1100 nM
SMILES: N[C@H](C(=O)O)C1[C@@H](C(=O)O)[C@@H]1C(=O)O (some centres unmarked) [DCG-IV]
Normalized Max ΔFRET (mGluR2 [1]; azi-ECL2, 100μM agonist, individual cells, normalized to 1mM glutamate): 75.6239 and 62.1009 and 89.9691 and 84.6273 and 55.3373 and 55.3387 and 55.3355 and 62.696 and 49.3687 and 57.2855 and 56.6756 and 63.6013 and 56.6982 and 53.3737 and 53.7969 and 61.9848 and 59.9837 and 58.1516 and 63.6225 and 66.6797 and 61.402 and 83.697 and 67.4032 and 68.3214 and 74.0066
Live-cell FRET max response normalized to 1mM glutamate (mGluR2 [1]; azi-ECL2 sensor, DCG-IV, individual values (N=25)): 0.614 and 0.837 and 0.674 and 0.6832 and 0.7401 and 0.621 and 0.8997 and 0.8463 and 0.5534 (3×) and 0.627 and 0.4937 and 0.5728 and 0.5668 and 0.567 and 0.5337 and 0.538 and 0.6199 and 0.5998 and 0.5815 and 0.7562 and 0.636 and 0.6362 and 0.6668
Normalized Max ΔFRET (mGluR2 [3]; SNAP-m2, 100μM agonist, individual cells, normalized to 1mM glutamate): 84.7663 and 70.8926 and 74.3888 and 73.8095 and 75.8105 and 75.3951 and 75.9881 and 74.211 and 74.4971 and 73.9262 and 75.3591 and 85.075 and 75.8448 and 76.6206 and 81.7136 and 78.0427 and 77.2768 and 74.1653 and 84.8254 and 80.7786 and 86.2145 and 83.3004 and 84.7137 and 86.1165 and 84.7264
Live-cell FRET max response normalized to 1mM glutamate (mGluR2 [3]; SNAP-m2 sensor, DCG-IV, individual values (N=25)): 0.8621 and 0.833 and 0.8471 and 0.8612 and 0.8473 and 0.7089 and 0.7439 and 0.7381 and 0.7581 and 0.754 and 0.7599 and 0.7421 and 0.745 and 0.7393 and 0.7536 and 0.7584 and 0.7662 and 0.8171 and 0.7804 and 0.7728 and 0.7417 and 0.8477 and 0.8508 and 0.8482 and 0.8078
Live-cell FRET max response normalized to 1mM glutamate (mGluR2 [4]; azi-CRD sensor, DCG-IV, individual values (N=19)): 0.7559 and 0.727 and 0.7189 and 0.7035 and 0.632 and 0.6169 and 0.7378 and 0.6793 and 0.6073 and 0.6642 and 0.7117 and 0.7276 and 0.6566 and 0.7993 and 0.7099 and 0.6625 and 0.714 and 0.6368 and 0.7062
Normalized Max ΔFRET (mGluR2 [4]; azi-CRD, 100μM agonist, individual cells, normalized to 1mM glutamate): 66.2522 and 61.6858 and 73.7778 and 67.9245 and 60.7306 and 66.4234 and 71.1688 and 72.7619 and 65.6646 and 79.932 and 70.9877 and 71.4032 and 63.6793 and 70.615 and 75.5857 and 72.6994 and 71.8894 and 70.347 and 63.2035
